ChEMBL document CHEMBL1153951, “Partial regeneration of beta-cells in the islets of Langerhans by Nymphayol a sterol isolated from Nymphaea stellata (Willd.) flowers” (2009)
Calls of active or inactive are those of the source.

Assays:
[1] = system: Rattus norvegicus; assay: Antihyperglycemic activity in po dosed STZ-diabetic rat assessed as insulin containing beta-cells by immunohistochemical study; assay type: functional, organism-based
[2] = system: Rattus norvegicus; assay: Antihyperglycemic activity in STZ-diabetic rat assessed as improvement in beta cell granulation at 50 mg/kg, po after 45 days by histopathological study; assay type: functional, organism-based; parameters: dose 50 mg/kg
[3] = system: Rattus norvegicus; assay: Antihyperglycemic activity in STZ-diabetic rat assessed as dilated islet cells at 25 mg/kg, po after 45 days by histopathological study; assay type: functional, organism-based; parameters: dose 25 mg/kg
[4] = system: Rattus norvegicus; assay: Antihyperglycemic activity in STZ-diabetic rat assessed as expansion of islet cells at 12.5 mg/kg, po after 45 days by histopathological study; assay type: functional, organism-based; parameters: dose 12.5 mg/kg
[5] = system: Rattus norvegicus; assay: Antihyperglycemic activity in po dosed STZ-diabetic rat assessed as lowering of fasting plasma glucose level after 45 days by colorimetry; assay type: functional
[6] = system: Rattus norvegicus; assay: Antihyperglycemic activity in STZ-diabetic rat assessed as hyperplastic islet cells at 50 mg/kg, po after 45 days by histopathological study; assay type: functional, organism-based; parameters: dose 50 mg/kg
[7] = system: Rattus norvegicus; assay: Antihyperglycemic activity in STZ-diabetic rat assessed as potentiation of insulin secretion from existing beta cells at 50 mg/kg, po after 45 days; assay type: functional, organism-based; parameters: dose 50 mg/kg
[8] = system: Rattus norvegicus; assay: Antihyperglycemic activity in STZ-diabetic rat assessed as hyperplastic islet cells at 600 mg/kg, po after 45 days by histopathological study; assay type: functional, organism-based; parameters: dose 600 mg/kg
[9] = system: Rattus norvegicus; assay: Antihyperglycemic activity in STZ-diabetic rat assessed as dilated islet cells at 600 ug/kg, po after 45 days by histopathological study; assay type: functional, organism-based
[10] = system: Rattus norvegicus; assay: Antihyperglycemic activity in STZ-diabetic rat assessed as expansion of islet cells at 25 mg/kg, po after 45 days by histopathological study; assay type: functional, organism-based; parameters: dose 25 mg/kg
[11] = system: Rattus norvegicus; assay: Antihyperglycemic activity in STZ-diabetic rat assessed as expansion of islet cells at 50 mg/kg, po after 45 days by histopathological study; assay type: functional, organism-based; parameters: dose 50 mg/kg
[12] = system: Rattus norvegicus; assay: Antihyperglycemic activity in STZ-diabetic rat assessed as dilated islet cells at 12.5 mg/kg, po after 45 days by histopathological study; assay type: functional, organism-based; parameters: dose 12.5 mg/kg

Measured: Activity

CCCC[C@@H](C)[C@H]1CC[C@H]2[C@@H]3CC=C4C[C@@H](O)CC[C@]4(C)[C@H]3CC[C@]12C [NYMPHAYOL]
78.05%: [5]
active: [1] | [2] | [4] | [7] | [12]
inactive: all other assays above
